Legend:
chickweed [1] = experiment: Test Example 4: herbicidal effect by soil treatment (Table 19, symbol P); type: in vivo, common chickweed (Stellaria media); conditions: amount of applied herbicide 320 g/ha
In short: (§1)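 Soil-surface application: an emulsion agent diluted with water to the predetermined dose is sprayed uniformly over seeds lying under roughly 1.5 cm of sterilized diluvial soil. Boxes stay in a greenhouse at 25° C. to 30° C. Three weeks later, each species is graded on previously defined criteria.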

blackgrass [2] = experiment: Test Example 5: herbicidal effect by foliage application, plastic box (Table 20, symbol J); type: in vivo, blackgrass (Alopecurus myosuroides); conditions: 320 g/ha, foliage application after 14-day growth, evaluated three weeks after application
In short: (§2)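 Sow seeds spot-wise in sterilized diluvial soil; cover with ~1.5 cm soil. Grow 14 days in greenhouse, 25° C. to 30° C. Spray foliage with emulsion diluted to predetermined amount. Rate effect after 3 weeks.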

windgrass [3] = experiment: Test Example 5: herbicidal effect by foliage application, plastic box (Table 20, symbol L); type: in vivo, windgrass (Apera spica-venti); conditions: 320 g/ha, foliage application after 14-day growth, evaluated three weeks after application
In short: as §2

redroot pigweed [4] = experiment: Test Example 5: herbicidal effect by foliage application, plastic box (Table 20, symbol N); type: in vivo, redroot pigweed (Amaranthus retroflexus); conditions: 320 g/ha, foliage application after 14-day growth, evaluated three weeks after application
In short: as §2

blackgrass [5] = experiment: Test Example 4: herbicidal effect by soil treatment (Table 19, symbol J); type: in vivo, blackgrass (Alopecurus myosuroides); conditions: amount of applied herbicide 320 g/ha
In short: as §1

persian speedwell [6] = experiment: Test Example 5: herbicidal effect by foliage application, plastic box (Table 20, symbol R); type: in vivo, Persian speedwell (Veronica persica); conditions: 320 g/ha, foliage application after 14-day growth, evaluated three weeks after application
In short: as §2

velvetleaf [7] = experiment: Test Example 5: herbicidal effect by foliage application, plastic box (Table 20, symbol M); type: in vivo, velvetleaf (Abutilon theophrasti); conditions: 320 g/ha, foliage application after 14-day growth, evaluated three weeks after application
In short: as §2

barnyard grass [8] = experiment: Test Example 4: herbicidal effect by soil treatment (Table 19, symbol H); type: in vivo, barnyard grass (Echinochloa crus-galli); conditions: amount of applied herbicide 320 g/ha
In short: as §1

oval-leafed pondweed = experiment: Test Example 1: herbicidal activity, application before weed generation under submerged conditions (Table 16, symbol C); type: in vivo, oval-leafed pondweed (Monochoria vaginalis); conditions: amount of applied herbicide 320 g/ha
In short: (§3)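 Emulsion formulation, water-diluted to set dose, was put onto the flooded surface (4 cm depth, alluvial soil) the same day weeds were sown and 2.5-leaf rice transplanted. After 3 weeks at 25-30 °C under glass, each species was rated 0 (≤5% kill) to 5 (≥90% kill).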

rice flat sedge = experiment: Test Example 3: herbicidal effect by foliage application, Wagner pot (Table 18, symbol E); type: in vivo, rice flat sedge (Cyperus iria); conditions: 320 g/ha
In short: (§4)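 Plants were sown in alluvial soil held under 0.1–0.5 cm standing water and grown 14 days in a greenhouse at 25–30 °C. An emulsifiable formulation, water-diluted to the set dose, was then sprayed onto the foliage, and effects were scored three weeks later using previously defined criteria.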

velvetleaf [9] = experiment: Test Example 4: herbicidal effect by soil treatment (Table 19, symbol M); type: in vivo, velvetleaf (Abutilon theophrasti); conditions: amount of applied herbicide 320 g/ha
In short: as §1

redroot pigweed [10] = experiment: Test Example 4: herbicidal effect by soil treatment (Table 19, symbol N); type: in vivo, redroot pigweed (Amaranthus retroflexus); conditions: amount of applied herbicide 320 g/ha
In short: as §1

Italian ryegrass [11] = experiment: Test Example 4: herbicidal effect by soil treatment (Table 19, symbol K); type: in vivo, Italian ryegrass (Lolium multiflorum); conditions: amount of applied herbicide 320 g/ha
In short: as §1

lambsquarters [12] = experiment: Test Example 4: herbicidal effect by soil treatment (Table 19, symbol O); type: in vivo, lambsquarters (Chenopodium album); conditions: amount of applied herbicide 320 g/ha
In short: as §1

barnyard grass [13] = experiment: Test Example 5: herbicidal effect by foliage application, plastic box (Table 20, symbol H); type: in vivo, barnyard grass (Echinochloa crus-galli); conditions: 320 g/ha, foliage application after 14-day growth, evaluated three weeks after application
In short: as §2

lambsquarters [14] = experiment: Test Example 5: herbicidal effect by foliage application, plastic box (Table 20, symbol O); type: in vivo, lambsquarters (Chenopodium album); conditions: 320 g/ha, foliage application after 14-day growth, evaluated three weeks after application
In short: as §2

Japanese bulrush = experiment: Test Example 1: herbicidal activity, application before weed generation under submerged conditions (Table 16, symbol B); type: in vivo, Japanese bulrush (Schoenoplectus juncoides); conditions: amount of applied herbicide 320 g/ha
In short: as §3

persian speedwell [15] = experiment: Test Example 4: herbicidal effect by soil treatment (Table 19, symbol R); type: in vivo, Persian speedwell (Veronica persica); conditions: amount of applied herbicide 320 g/ha
In short: as §1

wild oat [16] = experiment: Test Example 5: herbicidal effect by foliage application, plastic box (Table 20, symbol I); type: in vivo, wild oat (Avena fatua); conditions: 320 g/ha, foliage application after 14-day growth, evaluated three weeks after application
In short: as §2

southern crabgrass [17] = experiment: Test Example 5: herbicidal effect by foliage application, plastic box (Table 20, symbol F); type: in vivo, southern crabgrass (Digitaria ciliaris); conditions: 320 g/ha, foliage application after 14-day growth, evaluated three weeks after application
In short: as §2

late watergrass = experiment: Test Example 1: herbicidal activity, application before weed generation under submerged conditions (Table 16, symbol A); type: in vivo, late watergrass (Echinochloa oryzicola); conditions: amount of applied herbicide 320 g/ha
In short: as §3

windgrass [18] = experiment: Test Example 4: herbicidal effect by soil treatment (Table 19, symbol L); type: in vivo, windgrass (Apera spica-venti); conditions: amount of applied herbicide 320 g/ha
In short: as §1

Italian ryegrass [19] = experiment: Test Example 5: herbicidal effect by foliage application, plastic box (Table 20, symbol K); type: in vivo, Italian ryegrass (Lolium multiflorum); conditions: 320 g/ha, foliage application after 14-day growth, evaluated three weeks after application
In short: as §2

green foxtail [20] = experiment: Test Example 4: herbicidal effect by soil treatment (Table 19, symbol G); type: in vivo, green foxtail (Setaria viridis); conditions: amount of applied herbicide 320 g/ha
In short: as §1

green foxtail [21] = experiment: Test Example 5: herbicidal effect by foliage application, plastic box (Table 20, symbol G); type: in vivo, green foxtail (Setaria viridis); conditions: 320 g/ha, foliage application after 14-day growth, evaluated three weeks after application
In short: as §2

chickweed [22] = experiment: Test Example 5: herbicidal effect by foliage application, plastic box (Table 20, symbol P); type: in vivo, common chickweed (Stellaria media); conditions: 320 g/ha, foliage application after 14-day growth, evaluated three weeks after application
In short: as §2

wild oat [23] = experiment: Test Example 4: herbicidal effect by soil treatment (Table 19, symbol I); type: in vivo, wild oat (Avena fatua); conditions: amount of applied herbicide 320 g/ha
In short: as §1

barnyard grass [24] = experiment: Test Example 3: herbicidal effect by foliage application, Wagner pot (Table 18, symbol H); type: in vivo, barnyard grass (Echinochloa crus-galli); conditions: 320 g/ha
In short: as §4

southern crabgrass [25] = experiment: Test Example 4: herbicidal effect by soil treatment (Table 19, symbol F); type: in vivo, southern crabgrass (Digitaria ciliaris); conditions: amount of applied herbicide 320 g/ha
In short: as §1

Chinese sprangletop = experiment: Test Example 3: herbicidal effect by foliage application, Wagner pot (Table 18, symbol D); type: in vivo, chinese sprangletop (Leptochloa chinensis); conditions: 320 g/ha
In short: as §4

| Compound | Herbicidal effect by soil treatment, P: chickweed (chickweed [1]) | herbicidal effect on J: blackgrass (evaluation grade 0-5) (blackgrass [2]) | herbicidal effect on L: windgrass (evaluation grade 0-5) (windgrass [3]) | herbicidal effect on N: redroot pigweed (evaluation grade 0-5) (redroot pigweed [4]) | Herbicidal effect by soil treatment, J: blackgrass (blackgrass [5]) | herbicidal effect on R: persian speedwell (evaluation grade 0-5) (persian speedwell [6]) | herbicidal effect on M: velvetleaf (evaluation grade 0-5) (velvetleaf [7]) | Herbicidal effect by soil treatment, H: barnyard grass (barnyard grass [8]) | Herbicidal effect, C: oval-leafed pondweed (oval-leafed pondweed) | herbicidal effect on rice flat sedge (E) (rice flat sedge) | Herbicidal effect by soil treatment, M: velvetleaf (velvetleaf [9]) | Herbicidal effect by soil treatment, N: redroot pigweed (redroot pigweed [10]) | Herbicidal effect by soil treatment, K: Italian ryegrass (Italian ryegrass [11]) | Herbicidal effect by soil treatment, O: lambsquarters (lambsquarters [12]) | herbicidal effect on H: barnyard grass (evaluation grade 0-5) (barnyard grass [13]) | herbicidal effect on O: lambsquarters (evaluation grade 0-5) (lambsquarters [14]) | Herbicidal effect, B: Japanese bulrush (Japanese bulrush) | Herbicidal effect by soil treatment, R: persian speedwell (persian speedwell [15]) | herbicidal effect on I: wild oat (evaluation grade 0-5) (wild oat [16]) | herbicidal effect on F: southern crabgrass (evaluation grade 0-5) (southern crabgrass [17]) | also measured |
| --- | --- | --- | --- | --- | --- | --- | --- | --- | --- | --- | --- | --- | --- | --- | --- | --- | --- | --- | --- | --- | --- |
| CCCC(=O)Oc1c(C)nn(C)c(=O)c1-c1c(-c2ccccc2OCC)sc2c(F)cccc12 [4-008] | 1 (Herbicidal rate of 5% or more and less than 20%) | 3 (Herbicidal rate of 40% or more and less than 70%) | 5 (Herbicidal rate of 90% or more (almost completely withered)) | 5 (Herbicidal rate of 90% or more (almost completely withered)) | 0 (Herbicidal rate of 5% or less (almost no effect)) | 4 (Herbicidal rate of 70% or more and less than 90%) | 4 (Herbicidal rate of 70% or more and less than 90%) | 3 (Herbicidal rate of 40% or more and less than 70%) | 0 (Herbicidal rate of 5% or less (almost no effect)) | 5 (Herbicidal rate of 90% or more (almost completely withered)) | 1 (Herbicidal rate of 5% or more and less than 20%) | 2 (Herbicidal rate of 20% or more and less than 40%) | 0 (Herbicidal rate of 5% or less (almost no effect)) | 2 (Herbicidal rate of 20% or more and less than 40%) | 4 (Herbicidal rate of 70% or more and less than 90%) | 3 (Herbicidal rate of 40% or more and less than 70%) | 3 (Herbicidal rate of 40% or more and less than 70%) | 0 (Herbicidal rate of 5% or less (almost no effect)) | 0 (Herbicidal rate of 5% or less (almost no effect)) | 4 (Herbicidal rate of 70% or more and less than 90%) | Herbicidal effect, A: late watergrass (late watergrass): 3 (Herbicidal rate of 40% or more and less than 70%); Herbicidal effect by soil treatment, L: windgrass (windgrass [18]): 0 (Herbicidal rate of 5% or less (almost no effect)); herbicidal effect on K: Italian ryegrass (evaluation grade 0-5) (Italian ryegrass [19]): 0 (Herbicidal rate of 5% or less (almost no effect)); Herbicidal effect by soil treatment, G: green foxtail (green foxtail [20]): 3 (Herbicidal rate of 40% or more and less than 70%); herbicidal effect on G: green foxtail (evaluation grade 0-5) (green foxtail [21]): 5 (Herbicidal rate of 90% or more (almost completely withered)); herbicidal effect on P: chickweed (evaluation grade 0-5) (chickweed [22]): 5 (Herbicidal rate of 90% or more (almost completely withered)); Herbicidal effect by soil treatment, I: wild oat (wild oat [23]): 0 (Herbicidal rate of 5% or less (almost no effect)); herbicidal effect on barnyard grass (H) (barnyard grass [24]): 5 (Herbicidal rate of 90% or more (almost completely withered)); Herbicidal effect by soil treatment, F: southern crabgrass (southern crabgrass [25]): 2 (Herbicidal rate of 20% or more and less than 40%); herbicidal effect on Chinese sprangletop (D) (Chinese sprangletop): 3 (Herbicidal rate of 40% or more and less than 70%) |
| CCOc1cc(F)ccc1-c1sc2c(Cl)cccc2c1-c1c(O)c(C)nn(C)c1=O [4-035] | 3 (Herbicidal rate of 40% or more and less than 70%) | 5 (Herbicidal rate of 90% or more (almost completely withered)) | 5 (Herbicidal rate of 90% or more (almost completely withered)) | 5 (Herbicidal rate of 90% or more (almost completely withered)) | 0 (Herbicidal rate of 5% or less (almost no effect)) | 5 (Herbicidal rate of 90% or more (almost completely withered)) | 4 (Herbicidal rate of 70% or more and less than 90%) | 5 (Herbicidal rate of 90% or more (almost completely withered)) | 0 (Herbicidal rate of 5% or less (almost no effect)) | 5 (Herbicidal rate of 90% or more (almost completely withered)) | 2 (Herbicidal rate of 20% or more and less than 40%) | 3 (Herbicidal rate of 40% or more and less than 70%) | 0 (Herbicidal rate of 5% or less (almost no effect)) | 0 (Herbicidal rate of 5% or less (almost no effect)) | 5 (Herbicidal rate of 90% or more (almost completely withered)) | 4 (Herbicidal rate of 70% or more and less than 90%) | 0 (Herbicidal rate of 5% or less (almost no effect)) | 1 (Herbicidal rate of 5% or more and less than 20%) | 0 (Herbicidal rate of 5% or less (almost no effect)) | 5 (Herbicidal rate of 90% or more (almost completely withered)) | Herbicidal effect, A: late watergrass (late watergrass): 2 (Herbicidal rate of 20% or more and less than 40%); Herbicidal effect by soil treatment, L: windgrass (windgrass [18]): 0 (Herbicidal rate of 5% or less (almost no effect)); herbicidal effect on K: Italian ryegrass (evaluation grade 0-5) (Italian ryegrass [19]): 4 (Herbicidal rate of 70% or more and less than 90%); Herbicidal effect by soil treatment, G: green foxtail (green foxtail [20]): 3 (Herbicidal rate of 40% or more and less than 70%); herbicidal effect on G: green foxtail (evaluation grade 0-5) (green foxtail [21]): 5 (Herbicidal rate of 90% or more (almost completely withered)); herbicidal effect on P: chickweed (evaluation grade 0-5) (chickweed [22]): 4 (Herbicidal rate of 70% or more and less than 90%); Herbicidal effect by soil treatment, I: wild oat (wild oat [23]): 0 (Herbicidal rate of 5% or less (almost no effect)); herbicidal effect on barnyard grass (H) (barnyard grass [24]): 5 (Herbicidal rate of 90% or more (almost completely withered)); Herbicidal effect by soil treatment, F: southern crabgrass (southern crabgrass [25]): 4 (Herbicidal rate of 70% or more and less than 90%); herbicidal effect on Chinese sprangletop (D) (Chinese sprangletop): 3 (Herbicidal rate of 40% or more and less than 70%) |
